This note sets out measurements from patent publication US4482560A, “Carbostyril derivatives, and antihistaminic agents containing the same” (priority 1979, dated 1984).

As usually defined, the LD50 is the dose at which mortality reaches 50%. Low values mean greater toxicity, high ones lower toxicity. As a reminder, the pA2 is the negative logarithm of the molar antagonist concentration that doubles the agonist concentration needed for the same response. Low values mean a weaker antagonist, high ones a more potent antagonist.

Structures can show the parent of a compound that is named as a salt. Where two headings read alike, the source gives them in different places. Bounds are passed on as bounds.

One series concerns the target ileum of a guinea pig (Cavia porcellus, UniProt P31389). Nature of the series: cell-based. As for the experimental part:
Pharmacological tests of the present compounds were conducted according to said method as follows:
A male guinea pig having 300 to 500 g body weight is killed by blood letting. An ileum having length of 15 cm being enucleated from the ileocecal region is dipped into Tyrode's solution (which is prepared from 8.0 g of NaCl, 0.2 g of KCl, 0.2 g of CaCl2, 1.0 g of glucose, 1.0 g of NaHCO3, 0.065 g of NaHPO4.2H2 O and 0.2135 g of MgCl2.6H2 O to make 1000 ml in total volume by adding water). Then the tissue of ileum is cut to a length of 2.5 to 3.0 cm and suspended in an organ bath filled with 30 ml of Tyrode's solution. The organ bath is kept a temperature of 36° C. while blowing a mixed gas consisting of 5% of CO2 and 95% of O2 into the bath. 10 Minutes after the blowing, 10^-6 M of histamine is added to the bath to examine the sensitivity of the tissue and a reaction curve (control) with respect to the dosage of histamine is obtained. After the dosage of histamine-reaction curve (control) become constant 10^-6 g/ml of a compound to be tested is added to the bath and further histamine is added 5 minutes later to obtain dosage-reaction curve. Retraction of the ileum is recorded on a pen-recorder through an isotonic transducer (TD-112S manufactured by Nihon Koden).

A short description of a further series: Acute toxicity test. The settings on record: rat, in vivo; oral, male rats. The source says: Each of the compounds of the present invention was orally administered to male rats to determine the acute toxicity.
A further series has as its system Male mice of ddy-strain. As to the kind of experiment: Halothane anesthesia increasing activity. Format: in vivo, mouse. The settings on record: for Time (minutes) between introduction of anesthesia and waking (righting reflex): oral, 32 mg/kg, 1 hour before 4% Halothane for 3 minutes, male ddy mice, saline control 4.2; for Halothane anesthesia increasing activity / central nervous controlling effect in words: compared with control (physiological saline solution). The method, then: Male mice of ddy-strain having about 20 g body weight were used. One test group consists of 10 mice. An aqueous Gummi Arabicum suspension of test compound (80 mg of a compound to be tested and 1 g of Gummi Arabicum/100 ml of physiological NaCl solution) was administered orally to each mouse at the dosage of 32 mg of test compound/kg body. One hour after the administration, each mouse was placed in gas respiration chamber (13×13×24 cm) and oxygen gas containing 4% of Halothane [2-bromo-2-chloro-1,1,1-trifluoroethane] was blown into the chamber at the velocity of 2 l/min for 3 minutes. A mouse anaesthetized was taken out from the chamber and the time between the introduction of anesthesia to waking was measured by righting reflex as the index. To mice of control group, 1% Gummi Arabicum aqueous physiological solution was orally administered at the dosage of 0.1 ml/kg body. (Reference: M. J. Turnbull and J. W. Watkins: Br. J. Pharmacol., 58, 27-35 (1976))

[1] abbreviates: histamine-induced retraction of guinea pig ileum, test compound 10^-6 g/ml, 36° C., Van Rossam method, read-out: pA2 (converted).
The mark [2] stands for this setting: histamine-induced retraction of guinea pig ileum, test compound 10^-6 g/ml, 36° C., Van Rossam method.

ileum of a guinea pig, sequence (P31389 whole entry): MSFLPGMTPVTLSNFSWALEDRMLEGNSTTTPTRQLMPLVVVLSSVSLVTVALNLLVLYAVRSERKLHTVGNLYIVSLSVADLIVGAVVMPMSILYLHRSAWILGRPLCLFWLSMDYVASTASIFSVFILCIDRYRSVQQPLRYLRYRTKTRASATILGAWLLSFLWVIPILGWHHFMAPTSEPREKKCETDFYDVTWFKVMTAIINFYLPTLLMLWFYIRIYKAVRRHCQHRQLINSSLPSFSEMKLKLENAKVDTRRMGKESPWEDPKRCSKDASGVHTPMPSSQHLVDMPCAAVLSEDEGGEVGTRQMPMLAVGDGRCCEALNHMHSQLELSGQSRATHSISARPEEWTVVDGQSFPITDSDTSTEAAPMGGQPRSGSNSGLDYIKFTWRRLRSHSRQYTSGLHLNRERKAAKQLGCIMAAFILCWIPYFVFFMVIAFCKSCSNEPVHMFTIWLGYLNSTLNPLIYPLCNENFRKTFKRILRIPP

On to `C#CCN1C(=O)CCc2c(OCCCN3CCC(Cc4ccccc4)CC3)cccc21.Cl` [Compound 3, 1-Propargyl-5-[3-(4-benzyl-1-piperidyl)-propoxy]-3,4-dihydrocarbostyril monohydrochloride], for which, on ileum of a guinea pig (setting [1]), the Kb was 0.186 nM. The LD50 in “Acute toxicity test” was over 1000 mg/kg. The “Time (minutes) between introduction of anesthesia and waking (righting reflex)” value (from here on “Time (minutes) between introduction”) in the series with Male mice of ddy-strain was determined as 5.1 min.
`COc1ccc(N2CCN(CC(O)COc3ccc(NC(N)=O)c4c3CCC(=O)N4)CC2)cc1.Cl` (stereo not drawn) [S, 5-{2-Hydroxy-3-[4-(4-methoxyphenyl)-1-piperazinyl]propoxy}-8-ureido-3,4-dihydrocarbostyril hydrochloride, reference compound]: the Kb on ileum of a guinea pig (setting [1]) is 10.7 nM. For the same compound, in the series on Male mice of ddy-strain, the “Halothane anesthesia increasing activity / central nervous controlling effect in words” value is given as “different Halothane anesthesia increasing activity as compared with control”; the “Time (minutes) between introduction” value amounted to 9.1 min.
For “7-[4-β-Chlorophenyl)-1-piperazinylpropoxy]-carbostyril [reference compound]”, in the series with Male mice of ddy-strain, the “Halothane anesthesia increasing activity / central nervous controlling effect in words” value is on record as “different Halothane anesthesia increasing activity as compared with control”; the “Time (minutes) between introduction” value came to 32.7 min.
Consider `CC(=O)Oc1ccc(OCC(O)CN2CCN(c3ccccc3Cl)CC2)c2c1NC(=O)CC2` (stereo not drawn) [P, 8-Acetyoxy-5-{2-hydroxy-3-[4-(2-chloro-phenyl)-1-piperazinyl]propoxy}-3,4-dihydrocarbostyril hydrochloride, reference compound], for which the Kb on ileum of a guinea pig (setting [1]) is 24 nM. Further, in the series with Male mice of ddy-strain, the “Halothane anesthesia increasing activity / central nervous controlling effect in words” value was “different Halothane anesthesia increasing activity as compared with control”; the “Time (minutes) between introduction” value came to 8.9 min.
For the compound `O=C(O)C(=O)O.O=C1CCc2c(OCC(O)CN3CCC(Cc4ccccc4)CC3)cccc2N1Cc1ccccc1` (stereo not drawn) [Compound 12, 1-Benzyl-5-[2-hydroxy-(4-benzyl-1-piperidyl)-propoxy]-3,4-dihydrocarbostyril monooxalate], the Kb on ileum of a guinea pig (setting [1]) was 0.02 nM. In addition, the LD50 in the series “Acute toxicity test” is over 1000 mg/kg. The “Time (minutes) between introduction” value in the series with Male mice of ddy-strain is 4.2 min.
Consider `CC(C)(C)NCC(O)c1cc(Cl)c2c(c1)CCC(=O)N2` (stereo not drawn) [K, 8-Chloro-6-(1-hydroxy-2-tert-butylamino-ethyl)-3,4-dihydrocarbostyril monohydrochloride, reference compound], for which, at ileum of a guinea pig (setting [1]), the Kb is 47900 nM.
As for `COc1ccc(CCNC(C)C(=O)c2cc(Cl)c3c(c2)CCC(=O)N3)cc1OC` (stereo not drawn) [L, 8-Chloro-6-[α-(β-3,4-dimethoxyphenethyl-amino)propionyl]-3,4-dihydrocarbostyril monohydrochloride, reference compound], the Kb at ileum of a guinea pig (setting [1]) is 4790 nM.
Compound `O=C1CCc2c(cccc2OCCCN2CCC(O)(c3ccccc3)CC2)N1` [Compound 14, 5-{3-[4-(4-Hydroxy-4-phenyl)-1-piperidyl]}-3,4-dihydrocarbostyril] yielded a pA2 on ileum of a guinea pig (setting [2]) of 9.30. Also, in “Acute toxicity test”, the LD50 is over 1000 mg/kg. Also, the “Time (minutes) between introduction” value in the series with Male mice of ddy-strain came to 5.1 min.
Turning to `O=c1ccc2ccc(OCCCN3CCN(c4ccccc4)CC3)cc2[nH]1` [G, 7-(4-Phenyl-1-piperazinylpropoxy)carbostyril, reference compound], the “Time (minutes) between introduction” value in the series on Male mice of ddy-strain was 28.7 min.
For the compound `COc1ccc(CCNC(C)C(O)c2cc(Cl)c3c(c2)CCC(=O)N3)cc1OC` (stereo not drawn) [O, 8-Chloro-6-[1-hydroxy-2-(β-3,4-dimethoxy-phenethylamino)propyl]-3,4-dihydrocarbostyril hydrochloride, reference compound], the Kb at ileum of a guinea pig (setting [1]) was 1480 nM.
Turning to `Cc1ccccc1N1CCN(CC(O)COc2ccc(NS(C)(=O)=O)c3c2CCC(=O)N3)CC1` (stereo not drawn) [T, 8-Methanesulfonylamino-5-{2-hydroxy-3-[4-(2-methylphenyl)-1-piperazinyl]propoxy}-3,4-dihydro-carbostyril, reference compound], the Kb at ileum of a guinea pig (setting [1]) was 15.8 nM. Also, in the series on Male mice of ddy-strain, the “Halothane anesthesia increasing activity / central nervous controlling effect in words” value was “different Halothane anesthesia increasing activity as compared with control”; the “Time (minutes) between introduction” value is 8.9 min.
On ileum of a guinea pig (setting [2]), `O=c1ccc2cccc(OCCCN3CCN(c4ccccc4)CC3)c2[nH]1` [F, 8-(4-Phenyl-1-piperazinylpropoxy)carbostyril, reference compound] displayed a pA2 of 8.58. Moreover, in the series on Male mice of ddy-strain, the “Time (minutes) between introduction” value turned out to be 9.5 min.
Consider `C=CCN1C(=O)CCc2c(OCC(O)CN3CCC(Cc4ccccc4)CC3)cccc21.O=C(O)C(=O)O` (stereo not drawn) [Compound 6, 1-Allyl-5-[2-hydroxy-(4-benzyl-1-piperidyl)-propoxy]-3,4-dihydrocarbostyril monooxalate], for which the Kb on ileum of a guinea pig (setting [1]) was 0.288 nM. Further, the LD50 in “Acute toxicity test” was over 1000 mg/kg. In the series with Male mice of ddy-strain, the “Time (minutes) between introduction” value is 5.6 min.
As to `CC(C(O)c1cc(Cl)c2c(c1)CCC(=O)N2)N1CCN(c2ccccc2)CC1` (stereo not drawn) [M, 8-Chloro-6-[1-hydroxy-2-(4-phenyl-1-piperazinyl)propyl]-3,4-dihydrocarbostyril monohydrochloride, reference compound], the Kb at ileum of a guinea pig (setting [1]) is 6460 nM.
Turning to `CCN1C(=O)CCc2c(OCC(O)CN3CCC(Cc4ccccc4)CC3)cccc21.O=C(O)C(=O)O` (stereo not drawn) [Compound 7, 1-Ethyl-5-[2-hydroxy-3-(4-benzyl-1-piperidyl)-propoxy]-3,4-dihydrocarbostyril monooxalate], at ileum of a guinea pig (setting [1]), the Kb is 0.224 nM. The compound also yielded an LD50 in the series “Acute toxicity test” of over 1000 mg/kg. Moreover, the “Time (minutes) between introduction” value with Male mice of ddy-strain amounted to 4.2 min.
Consider `Cc1cc(=O)[nH]c2ccc(OCCCN3CCN(c4ccccc4)CC3)cc12` [H, 4-Methyl-6-(4-phenyl-1-piperazinylpropoxy)-carbostyril, reference compound], for which, on ileum of a guinea pig (setting [1]), the Kb is 0.269 nM.
As for `Cc1cc(=O)[nH]c2cc(OCCCN3CCN(Cc4ccc(Cl)cc4)CC3)ccc12` [J, reference compound], at ileum of a guinea pig (setting [2]), the pA2 amounted to 9.13. Also, in the series with Male mice of ddy-strain, the “Halothane anesthesia increasing activity / central nervous controlling effect in words” value was “different Halothane anesthesia increasing activity as compared with control”; the “Time (minutes) between introduction” value is 8.5 min.
Regarding `CC(C(=O)c1cc(Cl)c2c(c1)CCC(=O)N2)N1CCN(c2ccccc2)CC1` (stereo not drawn) [Compound N, 8-Chloro-6-[α-(4-phenyl)-1-piperazinyl)-propionyl]-3,4-dihydrocarbostyril hydrochloride, reference compound], at ileum of a guinea pig, the Kb stood at 617 nM.
“8-(2-Propionyloxy)-5-[2-hydroxy-3-(4-phenyl-1-piperazinyl)propoxy]-3,4-dihydrocarbostyril hydrochloride [Q, reference compound]” had a pA2 at ileum of a guinea pig (setting [2]) of 8.65. For the same compound, in the series with Male mice of ddy-strain, the “Halothane anesthesia increasing activity / central nervous controlling effect in words” value was “different Halothane anesthesia increasing activity as compared with control”; the “Time (minutes) between introduction” value was 8.7 min.
`COc1ccc(N2CCN(CC(O)COc3ccc(OCc4ccccc4)c4c3CCC(=O)N4)CC2)cc1` (stereo not drawn) [R, Benzyloxy-5-{2-hydroxy-3-[4-(4-methoxy-phenyl)-1-piperazinyl]propoxy}-3,4-dihydrocarbostyril hydrochloride, reference compound]: at ileum of a guinea pig (setting [2]), the pA2 is listed as 9.57.
